Laboratory results reported in PMC2567432 (PLoS ONE, 2008).
“Also recorded” adds a separate entry of the source.

Legend:
[1] = system: prostate cancer PC-3 cells; test: Cell proliferation WST-1 assay, PC-3; assay type: cell-based
Procedure: (§1) Figure 3 Growth inhibition of different tumor cell lines by polyphenols. […] Following 24-h incubation, cell proliferation was evaluated using the WST-1 assay.
(§2) Tumor cells were cultured in RPMI medium containing 10% fetal calf serum (RPMI-FCS) (PC-3, JIMT-1, MDA-MD 231) or in DMEM-FCS (astrocytoma 1321N1 cells) containing penicillin/streptomycin (100 U penicillin/ml; 100 µg streptomycin/ml) at 37°C/5% CO2. Cytosolic protein extracts of tumor cells were prepared using extraction buffer composed of 25 mM Tris, 2 mM EDTA, 10% Glycerol, 1% Triton ×100, 2 mM DTT, 1mM PMSF, pH. 7.0 containing 0.3% protease inhibitor cocktail. Protein content was determined according to Bradford. Specific activity of enzymes analyzed in cell extracts was expressed as U/mg protein.
(§3) Cell proliferation/vitality of tumor cells (96-well plates; 5000 cells/well) and primary human hepatocytes (24-well plates; 0.25×10^6 cells/well) was assayed using the WST-1 assay according to manufacturer's instructions. Trypan blue exclusion was performed by staining cells with 0.4% aqueous trypan blue solution according to the manufacturer's instructions.

[2] = system: primary human hepatocytes; test: Vitality of primary human hepatocytes (WST-1); assay type: cell-based; details: 24-h incubation, increasing concentrations
Procedure: (§4) Apoptosis/necrosis was evaluated using annexin V-5-fluorescein isothiocyanate (FITC)/propidium iodine (PI) staining followed by flow cytometric analysis. […] The proportion of dead cells (a: annexin V-FITC^−/PI^+), late apoptotic/necrotic cells (b: annexin V-FITC^+/PI^+), non-apoptotic cells (c: annexin V-FITC^−/PI^−) and early apoptotic cells (d: annexin V-FITC^+/PI^−). (B) Results of 3 independent experiments. […] Data represent the mean±S.D. of three independent experiments.
Primary human hepatocytes were isolated and cultivated in serum-free William Medium E [59]. Tissue samples from human liver resection were obtained from patients undergoing partial hepatectomy for metastatic liver tumor of colorectal cancer. Experimental procedures were performed according to the guidelines of the charitable state controlled foundation (Human Tissue and Cell Research), with the informed patient's consent approved by the local ethical committee.
as §3

astrocytoma 1321N1 cells [3] = test: D-lactate release into medium; assay type: cell-based; details: 1321N1, 20 µM curcumin, 24 h; control 34.6±6 µM
Procedure: (§5) Cells were harvested and the specific activity of Glo1 and LDH was determined in the cytosolic extract. (B) Semi-quantitative analysis of protein content as performed by Western blot using specific antibodies against β-actin and Glo1. The blot was developed by chemoluminescense detection. […] Data represent the mean±S.D. of independent experiments (n = 6).
The determination of D-lactate and L-lactate in supernatants of astrocytoma 1321N1 cells was performed by an enzymatic method based on the oxidation of L-lactate and D-lactate to pyruvate by NAD in the presence of L-LDH or D-LDH[63].

1321N1 cells = test: L-LDH release into cell supernatants; assay type: cell-based; details: 50 µM
Procedure: Tumor cells were cultured and treated as mentioned in Fig. 3. (A) LDH activity was measured in cell supernatants. (B) Cell vitality as assayed by the trypan blue exclusion test. Data represent the mean±S.D. of independent experiments (n = 6).
(§6) LDH activity was spectrophotometrically assayed in the cytosolic extract or in the of cell cultures by adding aliquots to 1 ml reaction buffer (50 mM Na2HPO4, pH 7.0, 0.15 mM NADH, and 0.3 mM pyruvate). Enzyme activity was recorded at 340 nm.

LDH in JIMT-1 cells = test: LDH activity in cytosolic extract of treated cells; assay type: cell-based, human; details: JIMT-1, 24 h
Procedure: as §5, §6

LDH = LDH activity measurement, interference check; assay type: biochemical; details: spectrophotometric, 340 nm
Procedure: as §6

astrocytoma 1321N1 cells [4] = test: Cellular ATP content (CellTiter-Glo), 1321N1; assay type: cell-based; details: 1321N1, 6 h; curcumin 0–100 µM, MGO 0–1000 µM
Procedure: Cellular ATP content was determined using the CellTiter-Glo® Luminescent Cell Viability Assay. Data represent the mean±S.D. of independent experiments (n = 12).
Cell ATP content was determined by means of the CellTiter-Glo® Luminescent Cell Viability Assay according to the manufacturer's instructions (Promega, Madison, USA). […] After 6-h incubation, cells were mixed with test reagents and luminescence was read according to the manufacturer's instructions. A standard curve was prepared from ATP (1 µM to 10 nM) in medium.

astrocytoma 1321N1 cells [5] = test: Apoptosis/necrosis by annexin V-FITC/PI staining, flow cytometry; assay type: cell-based; details: 24 h
Procedure: as §4
Samples were analyzed by flow cytometry using a FACSCalibur and the CellQuest software (BD Biosciences, San Jose, USA). Laser excitation wavelength was set at 488 nm. The green signal from annexin V-FITC was measured at 525 nm and the red signal from PI was measured at 620 nm. Annexin V^−/PI^− cells are viable; annexin V^+/PI^− cells are in early apoptosis, whereas annexin V^+/PI^+ cells are necrotic or in late apoptosis are […]

[6] = system: breast cancer MDA-MB-231 cells; test: Cell proliferation WST-1 assay, MDA-MB-231; assay type: cell-based, human; details: MDA-MB-231, 24 h
Procedure: as §1, §2, §3

Glo1 in JIMT-1 cells = system: T1, Glo1 in JIMT-1 cells; test: Specific Glo1 activity in cytosolic extract of treated cells; assay type: cell-based, human; details: JIMT-1, 24 h
T1 construct: endogenous in cells; host or cells: JIMT-1 breast carcinoma cells (ACC 589; DSMZ)
Procedure: Cells were harvested and the specific activity of Glo1 and LDH was determined in the cytosolic extract. (B) Semi-quantitative analysis of protein content as performed by Western blot using specific antibodies against β-actin and Glo1. The blot was developed by chemoluminescense detection. […] Data represent the mean±S.D. of independent experiments (n = 6). Tumor cells were cultured in RPMI medium containing 10% fetal calf serum (RPMI-FCS) (PC-3, JIMT-1, MDA-MD 231) or in DMEM-FCS (astrocytoma 1321N1 cells) containing penicillin/streptomycin (100 U penicillin/ml; 100 µg streptomycin/ml) at 37°C/5% CO2. Cytosolic protein extracts of tumor cells were prepared using extraction buffer composed of 25 mM Tris, 2 mM EDTA, 10% Glycerol, 1% Triton ×100, 2 mM DTT, 1mM PMSF, pH. 7.0 containing 0.3% protease inhibitor cocktail. Protein content was determined according to Bradford. Specific activity of enzymes analyzed in cell extracts was expressed as U/mg protein. […] The inhibition constant, Ki value of the inhibitors was evaluated by Dixon plot showing the reciprocal of enzyme velocity against the inhibitor concentration at variable concentrations of the substrate. Human Glo2 (E.C.3.1.2.6) was measured using the substrate S-lactoylglutathione as described earlier.

COc1cc(C=CC(=O)CC(=O)C=Cc2ccc(O)c(OC)c2)ccc1O [curcumin, 1,7-bis(4-hydroxy-3-methoxyphenyl)-1,6-heptadiene-3,5-dione]
effect on PC-3 cells at 100 µM ([1]; 100 µM, 24 h, morphology lost, necrotic cell death): toxic effect | concentration giving strong anti-proliferative effects ([1]; PC-3, 24 h, WST-1): above 50 µM | cell vitality of primary human hepatocytes [2]: no effect; also recorded: not affected | D-lactate concentration in the medium (astrocytoma 1321N1 cells [3]): 22 ± 1.9 µM | L-LDH release (1321N1 cells; 6-h incubation): not significantly increased | LDH release (1321N1 cells; 24-h incubation): increased | LDH activity in cytosolic extract (LDH in JIMT-1 cells): increased at higher curcumin concentrations | effect on LDH enzyme activity in the assay (LDH): not affected | cellular ATP content (astrocytoma 1321N1 cells [4]): decreased cellular ATP in a concentration-dependent manner | early apoptotic cells (annexin V-FITC+/PI−) (astrocytoma 1321N1 cells [5]; 10 µM): 11.0% | late apoptotic/necrotic cells (annexin V-FITC+/PI+) (astrocytoma 1321N1 cells [5]; 50 µM): 98.2% | concentration giving strong anti-proliferative effects [6]: above 50 µM | specific Glo1 activity in treated cells (Glo1 in JIMT-1 cells): decreased dose-dependently
